In patent US10561612B2, “Powdered formulations of cromolyn sodium and ibuprofen” (AZTherapies, Inc., priority 2017, dated 2020):
Where two headings read alike, the source gives them in different places. One block for each compound: values may come before it.

Assays:
Assay type in all cases: physicochemical
[1] = Stability study under accelerated degradation conditions, related substances; settings: 40° C. and 75% relative humidity
Procedure: A stability study was performed to determine the compatibility of the combined APIs under accelerated degradation conditions. Separate control samples of micronized cromolyn sodium (Sample A) and micronized ibuprofen (Sample B) were included in the study to be used as a comparator to the blend of Cromolyn/Ibuprofen (Sample C). The study was performed at 40° C. and 75% relative humidity. Measurements were taken at time 0, 1 month, 2 months, and 3 months.

[2] = Particle size determination (PSD) of coarse ibuprofen; settings: for D10 / D50 / D90: Effect of Dispersant
Source text: (§1) Coarse ibuprofen was characterized using PSD, PXRD, and GVS. […]
The average particle size determinations are illustrated in FIG. 5. The parameters and results were as follows: concentration 0.0406% Vol; span 1.493; uniformity 0.459; specific surface area 0.239 m^2/g; surface weighted mean […] 25.136 μm; and vol. weighted mean D[4,3] 62.020 μm.

[3] = Moisture content by simultaneous thermal analyzer (STA); settings: for % Moisture content / Enthalpy change: by STA
Procedure: (§2) Following micronization, Particle Size Distribution (PSD) analysis was performed by wet dispersion. […] FIGS. 8A and 8B illustrate the SEM imagery of micronized ibuprofen at a 10 μm scale for Batch 1 and Batch 2, respectively. FIGS. 9A and 9B illustrate the SEM imagery of micronized ibuprofen at a 2 μm scale for Batch 1 and Batch 2, respectively. FIGS. 10A and 10B illustrate the PXRD of micronized ibuprofen for Batch 1 and Batch 2, respectively. Table 7 contains the data for moisture content of micronized ibuprofen as determined by simultaneous thermal analyzer (STA), which tests both by DTA (Differential Temperature Analysis) and TG (Thermogravimetry). FIGS. 11A, 11B, and 11C illustrate the hygroscopicity as determined GVS for coarse ibuprofen (FIG. 11A), Batch 1 (FIG. 11B), and Batch 2 (FIG. 11C).

[4] = Powdered x-ray diffraction (PXRD)
Source text: Ibuprofen was characterized to determine the parameters necessary to administer a therapeutically effective amount using an inhalation delivery system. The methodology included particle size determination (PSD); powdered x-ray crystallization diffraction (PXRD); and gravimetric vapor sorption (GVS). The methods determined that coarse ibuprofen was crystalline and non-hygroscopic. The results are summarized in Example 3.
as §1

[5] = Gravimetric vapor sorption (GVS); settings: for weight gain upon exposure to moisture (moisture adsorbed on the surface): adsorption-desorption isotherm
Procedure: Ibuprofen was characterized to determine the parameters necessary to administer a therapeutically effective amount using an inhalation delivery system. The methodology included particle size determination (PSD); powdered x-ray crystallization diffraction (PXRD); and gravimetric vapor sorption (GVS).
as §2

[6] = Solubility and dispersibility seen in PSD by wet dispersion
Source text: The micronization may be performed on coarse ibuprofen using an air-jet mill or similar apparatus, such as a grinder or a mill. Other methods to micronize the ibuprofen include milling, bashing, cutting, or crushing. For example, two batches were micronized with an air-jet mill using a feed gas pressure of about 45 psi and a grinding pressure of about 45 psi. One batch was micronized a second time under the same conditions. Optionally, the ibuprofen may be micronized more than once. After micronization, particle size distribution was performed on the micronized ibuprofen by wet dispersion.
as §2

[7] = average particle size determination, FIG. 5

% Moisture content [3]: 1.19%
Enthalpy change [3]: 120.5 J/g
SMILES: CC(C)Cc1ccc(C(C)C(=O)O)cc1 (stereo not shown) [Batch 1, ibuprofen]

dispersibility in water [6]: not dispersible in water
solubility in organic solvents [6]: highly soluble in organic solvents
weight gain upon exposure to moisture (moisture adsorbed on the surface) ([5]; listed as Micronize ibuprofen): ~3%
weight gain upon exposure to moisture (moisture adsorbed on the surface) ([5]; listed as Micronized ibuprofen): ~3%
Individual Related Substances ≥ 0.5%, RRT 0.93, ibuprofen ([1]; 1 month): 0.07%
Individual Related Substances ≥ 0.5%, RRT 1.11, ibuprofen ([1]; 1 month): 0.05%
Total Impurities, ibuprofen ([1]; 1 month): 0.1%
Individual Related Substances ≥ 0.5%, RRT 0.93, ibuprofen ([1]; 2 months): 0.07%
Individual Related Substances ≥ 0.5%, RRT 1.11, ibuprofen ([1]; 2 months): <LOQ
Total Impurities, ibuprofen ([1]; 2 months): 0.1%
Individual Related Substances ≥ 0.5%, RRT 0.93, ibuprofen ([1]; 3 months): 0.07%
Individual Related Substances ≥ 0.5%, RRT 1.11, ibuprofen ([1]; 3 months): <LOQ
Total Impurities, ibuprofen ([1]; 3 months): 0.1%
Individual Related Substances ≥ 0.5%, RRT 0.93, ibuprofen ([1]; Initial T = 0): 0.07%
Total Impurities, ibuprofen ([1]; Initial T = 0): 0.1%
SMILES: CC(C)Cc1ccc(C(C)C(=O)O)cc1 (stereo not shown) [micronized ibuprofen, ibuprofen]
solubility in surfactant containing aqueous media [6]: soluble in different surfactants containing aqueous media even at low concentrations of the surfactant

The remaining lines, values behind:

SMILES: O=C(O)c1cc(=O)c2c(OCC(O)COc3cccc4oc(C(=O)O)cc(=O)c34)cccc2o1 [Sample A, cromolyn sodium]
Individual Related Substances ≥ 0.5%, cromolyn sodium ([1]; 1 month): 0.11%
Total Impurities, cromolyn sodium ([1]; 1 month): 0.1%
Individual Related Substances ≥ 0.5%, cromolyn sodium ([1]; 2 months): 0.11%
Total Impurities, cromolyn sodium ([1]; 2 months): 0.1%
Individual Related Substances ≥ 0.5%, cromolyn sodium ([1]; 3 months): 0.11%
Total Impurities, cromolyn sodium ([1]; 3 months): 0.1%
Individual Related Substances ≥ 0.5%, cromolyn sodium ([1]; Initial T = 0): 0.11%
Total Impurities, cromolyn sodium ([1]; Initial T = 0): 0.1%

SMILES: CC(C)Cc1ccc(C(C)C(=O)O)cc1 (stereo not shown) [coarse ibuprofen, ibuprofen]
D10 ([2]; T (Day) 0): 22.586 μm
D50 ([2]; T (Day) 0): 57.693 μm
D90 ([2]; T (Day) 0): 108.743 μm
D10 ([2]; T (Day) 1): 22.401 μm
D50 ([2]; T (Day) 1): 57.611 μm
D90 ([2]; T (Day) 1): 108.724 μm
span [2, 7]: 1.493
specific surface area [2, 7]: 0.239 m^2/g
surface weighted mean D[2,3] [2, 7]: 25.136 μm
uniformity [2, 7]: 0.459
vol. weighted mean D[4,3] [2, 7]: 62.020 μm
% Moisture content [3]: 0.20%
Enthalpy change [3]: 131.0 J/g
Inference (crystalline or amorphous) ([3]; from the enthalpy change): Crystalline
crystallinity [4]: crystalline
hygroscopicity [5]: non-hygroscopic
weight gain upon exposure to moisture (moisture adsorbed on the surface) [5]: < 0.2%
weight gain upon exposure to moisture (moisture adsorbed on the surface) ([5]; listed as Ibuprofen): < 0.2%
weight gain upon exposure to moisture (moisture adsorbed on the surface) ([5]; listed as ibuprofen): < 0.2%
hygroscopicity ([5]; listed as Coarse ibuprofen): non-hydroscopic
hygroscopicity ([5]; listed as ibuprofen): non-hydroscopic

SMILES: CC(C)Cc1ccc(C(C)C(=O)O)cc1 (stereo not shown) [Batch 2, ibuprofen]
% Moisture content [3]: 1.14%
Enthalpy change [3]: 94.4 J/g
